Values of other authors in patent US9687482B2, “Stable pharmaceutical composition comprising solifenacin, and method for preparing the same” (CJ HEALTHCARE CORPORATION, priority 2014, dated 2017).

Target: muscarinic M3 receptors (Homo sapiens, UniProt P20309)
Conditions: reported

muscarinic M3 receptors, sequence (P20309 whole entry): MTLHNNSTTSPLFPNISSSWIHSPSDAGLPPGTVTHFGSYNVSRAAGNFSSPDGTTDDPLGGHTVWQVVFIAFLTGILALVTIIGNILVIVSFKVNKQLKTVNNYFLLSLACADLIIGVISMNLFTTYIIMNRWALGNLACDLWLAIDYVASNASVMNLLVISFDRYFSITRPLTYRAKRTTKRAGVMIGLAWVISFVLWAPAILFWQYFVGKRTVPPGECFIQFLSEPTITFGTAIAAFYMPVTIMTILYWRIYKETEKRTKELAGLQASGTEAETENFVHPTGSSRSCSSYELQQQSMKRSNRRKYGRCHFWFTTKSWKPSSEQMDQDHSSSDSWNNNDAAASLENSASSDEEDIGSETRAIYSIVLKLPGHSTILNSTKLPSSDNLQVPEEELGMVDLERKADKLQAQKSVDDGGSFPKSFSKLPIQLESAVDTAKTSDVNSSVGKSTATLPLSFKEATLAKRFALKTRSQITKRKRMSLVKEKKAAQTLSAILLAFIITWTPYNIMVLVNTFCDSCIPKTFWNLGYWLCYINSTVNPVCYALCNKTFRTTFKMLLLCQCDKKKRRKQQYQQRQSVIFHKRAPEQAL

antagonistic action against muscarinic M3 receptors: excellent selective antagonistic action
SMILES: O=C(O[C@H]1CN2CCC1CC2)N1CCc2ccccc2[C@@H]1c1ccccc1 [Solifenacin, (1R,3′R)-3′-quinuclidinyl-1-phenyl-1,2,3,4-tetrahydro-2-isoquinoline carboxylate]
